The text below walks through data of ChEMBL document CHEMBL1201862, “PubChem BioAssay data set” (2004).

Some targets named below: Cytochrome P450 3A4 (Homo sapiens, UniProt P08684); Cytochrome P450 2D6 (Homo sapiens, UniProt P10635); Cytochrome P450 2C9 (Homo sapiens, UniProt P11712).
Another assay concerns the target T1, Cytochrome P450 1A2 (Homo sapiens, UniProt P05177).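 Note: PubChem cytochrome P450 panel assay, CYP1A2 panel member.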
T1 sequence (P05177 whole entry): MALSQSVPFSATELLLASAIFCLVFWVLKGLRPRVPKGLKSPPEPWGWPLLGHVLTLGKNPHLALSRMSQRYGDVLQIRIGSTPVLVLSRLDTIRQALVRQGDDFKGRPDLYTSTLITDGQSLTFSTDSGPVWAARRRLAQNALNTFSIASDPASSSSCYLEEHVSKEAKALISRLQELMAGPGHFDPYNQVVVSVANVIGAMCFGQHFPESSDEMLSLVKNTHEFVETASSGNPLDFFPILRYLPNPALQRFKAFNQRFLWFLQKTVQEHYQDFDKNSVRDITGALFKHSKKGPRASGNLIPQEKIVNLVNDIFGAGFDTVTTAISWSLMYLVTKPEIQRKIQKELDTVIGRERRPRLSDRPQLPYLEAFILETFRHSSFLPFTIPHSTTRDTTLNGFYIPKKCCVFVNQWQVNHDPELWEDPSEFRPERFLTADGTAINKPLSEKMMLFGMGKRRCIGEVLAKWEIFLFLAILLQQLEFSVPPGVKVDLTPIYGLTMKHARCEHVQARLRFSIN

In another assay the target is Cytochrome P450 2C19 (Homo sapiens, UniProt P33261). Nature of the assay: Cytochrome panel assay with activity outcomes. Panel member name: p450-cyp2c19 Compounds with AC50 equal or less than 10 uM are considered active. It counts as functional. The conditions noted are these: read-out: AC50.
Sequence of Cytochrome P450 2C19 (P33261 whole entry): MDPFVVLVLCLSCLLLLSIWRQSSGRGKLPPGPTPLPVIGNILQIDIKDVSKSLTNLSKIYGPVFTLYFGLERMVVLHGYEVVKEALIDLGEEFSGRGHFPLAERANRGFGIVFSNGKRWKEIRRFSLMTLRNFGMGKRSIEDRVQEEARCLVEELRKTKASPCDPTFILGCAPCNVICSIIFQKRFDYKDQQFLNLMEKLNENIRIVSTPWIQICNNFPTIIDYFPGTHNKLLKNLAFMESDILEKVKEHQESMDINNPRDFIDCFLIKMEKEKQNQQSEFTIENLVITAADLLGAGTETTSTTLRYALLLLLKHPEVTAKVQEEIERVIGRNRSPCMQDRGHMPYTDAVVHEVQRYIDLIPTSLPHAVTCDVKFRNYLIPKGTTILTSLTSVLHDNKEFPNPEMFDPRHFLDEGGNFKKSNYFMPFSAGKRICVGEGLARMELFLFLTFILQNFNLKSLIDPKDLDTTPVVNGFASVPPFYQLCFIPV
Assay [1] in a line: cytotoxicity toward NIH3T3 fibroblasts, dose response, counter-screen, cell-based, ATP luminescence, mouse fibroblasts (AID 2010).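 Note: cells exposed to compound for about 90 hours before reading.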 It is filed as functional. (A counterscreen serves to expose hits that act by an unwanted route or on another target.)
Assay [2] can be described thus: HEp-2 cell cytotoxicity, dose response, cytotoxicity control for RSV inhibitor project, HTS (AID 2410). The conditions noted are these: human respiratory syncytial virus. It counts as functional.
A short description of assay [3]: inhibitors of intracellular T. cruzi replication, confirmation, NIH3T3 host cells, beta-gal luminescence (AID 2044).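 Note: intracellular parasites grown in NIH/3T3 mouse fibroblasts as host cells; luminescent beta-galactosidase reporter signal from transgenic T. cruzi replicating inside host cells; inhibitors lower the luminescence signal.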 It counts as functional, cell-based.

The structures appear in SMILES notation. Calls of active or inactive are those of the source.

Sequence of Cytochrome P450 2C9 (P11712 whole entry): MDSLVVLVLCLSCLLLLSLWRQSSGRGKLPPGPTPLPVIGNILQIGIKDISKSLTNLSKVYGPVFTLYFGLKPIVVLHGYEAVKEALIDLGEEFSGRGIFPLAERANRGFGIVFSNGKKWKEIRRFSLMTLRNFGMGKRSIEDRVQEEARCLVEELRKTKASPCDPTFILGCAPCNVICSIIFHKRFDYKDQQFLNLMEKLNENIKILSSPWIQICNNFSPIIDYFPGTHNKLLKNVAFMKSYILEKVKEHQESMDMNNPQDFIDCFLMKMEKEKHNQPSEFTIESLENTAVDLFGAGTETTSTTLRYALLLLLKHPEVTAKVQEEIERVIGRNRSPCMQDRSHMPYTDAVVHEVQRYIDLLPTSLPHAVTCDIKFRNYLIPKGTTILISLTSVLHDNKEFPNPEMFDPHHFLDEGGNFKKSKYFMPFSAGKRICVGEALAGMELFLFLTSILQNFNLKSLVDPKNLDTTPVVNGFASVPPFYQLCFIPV
Sequence of Cytochrome P450 3A4 (P08684 whole entry): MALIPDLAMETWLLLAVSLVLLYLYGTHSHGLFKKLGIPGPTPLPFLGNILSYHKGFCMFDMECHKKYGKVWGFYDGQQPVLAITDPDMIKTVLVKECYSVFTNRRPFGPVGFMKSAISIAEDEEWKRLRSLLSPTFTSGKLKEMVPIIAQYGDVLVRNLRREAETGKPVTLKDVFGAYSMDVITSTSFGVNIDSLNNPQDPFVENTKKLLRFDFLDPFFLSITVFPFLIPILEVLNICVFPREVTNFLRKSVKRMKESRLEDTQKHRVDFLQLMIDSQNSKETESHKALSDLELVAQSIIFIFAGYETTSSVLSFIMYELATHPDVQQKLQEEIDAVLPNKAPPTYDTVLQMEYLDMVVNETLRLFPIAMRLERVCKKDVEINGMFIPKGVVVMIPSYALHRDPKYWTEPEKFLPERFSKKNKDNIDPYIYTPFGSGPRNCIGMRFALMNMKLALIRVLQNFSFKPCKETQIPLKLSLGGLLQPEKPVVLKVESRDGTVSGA
Sequence of Cytochrome P450 2D6 (P10635 whole entry): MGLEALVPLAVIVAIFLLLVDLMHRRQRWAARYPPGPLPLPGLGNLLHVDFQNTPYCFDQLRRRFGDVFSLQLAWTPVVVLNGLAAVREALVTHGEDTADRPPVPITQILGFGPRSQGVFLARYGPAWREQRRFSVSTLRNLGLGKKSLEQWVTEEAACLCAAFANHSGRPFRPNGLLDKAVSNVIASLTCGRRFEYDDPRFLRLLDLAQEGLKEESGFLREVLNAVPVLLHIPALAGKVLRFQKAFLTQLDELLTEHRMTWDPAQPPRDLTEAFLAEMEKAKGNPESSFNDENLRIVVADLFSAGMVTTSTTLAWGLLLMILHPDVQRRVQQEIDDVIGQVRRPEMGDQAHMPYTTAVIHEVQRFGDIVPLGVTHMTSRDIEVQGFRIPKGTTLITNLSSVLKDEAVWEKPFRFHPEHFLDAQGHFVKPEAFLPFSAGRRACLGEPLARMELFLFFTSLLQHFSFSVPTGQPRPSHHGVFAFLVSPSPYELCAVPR

One may read the AC50 as the concentration giving half of the maximal activity seen. For the compound `COc1ccccc1CN1CC[C@@]2(CCCN(C(=O)Oc3ccccc3)C2)C1`, the concentration at half-maximal activity (AC50) on Cytochrome P450 3A4 was 31.6 µM (inconclusive); on Cytochrome P450 1A2 it was 10 µM (inconclusive).

For the compound `CC1(c2ccccc2)NC(=O)N(CC(=O)NCCC2=CCCCC2)C1=O` (stereo not given), the AC50 was 22.4 µM (inconclusive) at Cytochrome P450 2D6 and 20 µM (inconclusive) on Cytochrome P450 3A4.

Take `CCC(C)OC(=O)C1=C(C)NC(=O)CC1c1ccccc1OC` (stereo not given): the values for the half-maximal activity concentration (AC50) on Cytochrome P450 3A4 and on Cytochrome P450 1A2 were 39.8 µM (inconclusive) and 15.8 µM (inconclusive), respectively.

In the case of `COc1cccc(C(=O)Nc2nc3c(s2)CN(C)CC3)c1`, the concentration at half-maximal activity (AC50) on Cytochrome P450 2D6 is 25.1 µM (inconclusive).

In the case of `CN1CCN(c2ncc3nc(-c4ccccc4)c(=O)n(Cc4cccs4)c3n2)CC1`, the concentration at half-maximal activity (AC50) at Cytochrome P450 1A2 was 15.8 µM (inconclusive).

With `CN1CCN(C(c2ccccc2)c2ccccc2)CC1` [CYCLIZINE], on Cytochrome P450 2D6, the AC50 was 7.94 µM (inconclusive).

`CN1CCc2nc3ccc(F)cc3c(C(N)=O)c2C1`: the values for the AC50 on Cytochrome P450 2C19, at Cytochrome P450 2C9 and on Cytochrome P450 1A2 were 39.8 µM (inconclusive), 17.8 µM (inconclusive) and 25.1 µM (inconclusive), respectively.

Consider `Nc1nc(CSc2nnnn2-c2ccc(Cl)cc2)nc(N2CCOCC2)n1`, for which the AC50 at Cytochrome P450 2D6 was 2.51 µM (inconclusive); at Cytochrome P450 2C19, 1 µM (inconclusive); at Cytochrome P450 2C9, 5.62 µM (inconclusive); on Cytochrome P450 1A2 it was 2.51 µM (inconclusive).

With `Cc1ccc(C(=O)N/N=C/c2nc3ccccc3n2C)cc1`, the concentration at half-maximal activity (AC50) was 15.8 µM (inconclusive) at Cytochrome P450 2C19, 3.16 µM (inconclusive) on Cytochrome P450 3A4 and 12.6 µM (inconclusive) on Cytochrome P450 2C9.

Broadly, the EC50 is the concentration giving half of the maximal effect. The CC50 is the concentration giving 50% cytotoxicity. Regarding `O=C(CN1CCN(S(=O)(=O)c2ccc(Br)cc2)CC1)N/N=C/c1ccc(Br)s1`, the half-maximal effective concentration (EC50) in assay [1] was > 60 µM (not active); in assay [3], 2.55 µM (active). Besides, the half-maximal cytotoxic concentration (CC50) in assay [2] is 22.2 µM (active).

With `CC(=O)[C@@H]1CC[C@H]2[C@H]3CC[C@H]4C[C@@H](O)CC[C@]4(C)[C@@H]3CC[C@]12C`, the half-maximal activity concentration (AC50) was 20 µM (inconclusive) at Cytochrome P450 2C19, 15.8 µM (inconclusive) on Cytochrome P450 3A4 and 10 µM (inconclusive) at Cytochrome P450 1A2.

As to `COC(=O)c1nn(-c2ccccc2)c(Cl)c1/C=N/OCc1ccc(Cl)cc1Cl`, in assay [2], the 50% cytotoxic concentration (CC50) was 23.8 µM (active).

Regarding `O=S(=O)(c1ccccc1)N1CCC[C@@]2(CCN(Cc3ccccc3)C2)C1`, the AC50 was 1.26 µM (inconclusive) on Cytochrome P450 3A4 and 20 µM (inconclusive) on Cytochrome P450 1A2.

`NC[C@@H]1O[C@H](c2ccccc2)Cc2c1ccc(O)c2O`: the AC50 was 31.6 µM (inconclusive) at Cytochrome P450 2D6, 31.6 µM (inconclusive) on Cytochrome P450 3A4 and 15.8 µM (inconclusive) at Cytochrome P450 1A2.

In the case of `COc1ccc(C(=O)N2CCC3(CCCN(C(=O)Nc4cccc(C#N)c4)C3)CC2)cc1`, the AC50 was 39.8 µM (inconclusive) on Cytochrome P450 2C19, 39.8 µM (inconclusive) at Cytochrome P450 2C9 and 15.8 µM (inconclusive) on Cytochrome P450 1A2.

In the case of `Cc1ccc([N+](=O)[O-])cc1NC(=S)NC(=O)CC(C)(C)C`, the half-maximal activity concentration (AC50) on Cytochrome P450 2D6 was 12.6 µM (inconclusive); at Cytochrome P450 3A4, 22.4 µM (inconclusive).

As to `Cc1cccc(CNc2ccnc(-c3ccccc3C(F)(F)F)n2)c1`, the AC50 is 25.1 µM (inconclusive) on Cytochrome P450 2D6, 3.16 µM (inconclusive) at Cytochrome P450 3A4 and 1.26 µM (inconclusive) at Cytochrome P450 2C9.

Take `CN(C)c1ncnc2ccc(-c3cccnc3)cc12`: the values for the AC50 at Cytochrome P450 2D6 and at Cytochrome P450 2C9 were 39.8 µM (inconclusive) and 1.26 µM (inconclusive), respectively.

Consider `CCOc1c2ccc(C(=O)NCc3ccc(OC(F)(F)F)cc3)cc2nn1C`, for which the concentration at half-maximal activity (AC50) on Cytochrome P450 2D6 is 3.16 µM (inconclusive); on Cytochrome P450 2C19 it was 20 µM (inconclusive).

Regarding `Cc1ccccc1[C@]1(C)ON(c2ccccc2C(F)(F)F)C1=O`, the 50% cytotoxic concentration (CC50) in assay [2] was 21.8 µM (active).

As for `CCCCCCCCC(=O)N/N=C/c1cccc(Br)c1`, on Cytochrome P450 2D6, the AC50 was 7.08 µM (inconclusive).

As for `Cc1c(N(C)C)c(=O)n(-c2ccccc2)n1C` [AMINOPYRINE], the half-maximal activity concentration (AC50) at Cytochrome P450 1A2 was 10 µM (inconclusive).

As for `CC(C)CN1CCCC2(CCN(C(=O)c3cc(C(F)(F)F)cc(C(F)(F)F)c3)CC2)C1`, the concentration at half-maximal activity (AC50) at Cytochrome P450 3A4 was 15.8 µM (inconclusive); on Cytochrome P450 2C9, 39.8 µM (inconclusive); at Cytochrome P450 1A2 it was 12.6 µM (inconclusive).

In the case of `COc1ccccc1NC(=O)C1CCN(S(=O)(=O)c2ccc3c(c2)NC(=O)C(C)S3)CC1` (stereo not given), the CC50 in assay [2] is 20.2 µM (active).

As to `CCOC(=O)c1c(C)[nH]c(N=Nc2ccccc2)c1C`, the half-maximal cytotoxic concentration (CC50) in assay [2] was 34.9 µM (active).

Consider `CCN1C(=O)C(CC(=O)Nc2ccc(OC)cc2)N(Cc2cccs2)C1=S` (stereo not given), for which the AC50 on Cytochrome P450 2D6 is 14.1 µM (inconclusive).

Take `Cc1nc(N)sc1CCN` [AMTHAMINE]: the half-maximal activity concentration (AC50) at Cytochrome P450 1A2 is 31.6 µM (inconclusive).

With `O=C(N/N=C/c1ccc(Br)s1)c1c[nH]c2ccccc12`, the CC50 in assay [2] is 37.3 µM (active).

As to `CC(C)C(=O)/N=c1\sc2cccc(F)c2n1C`, the half-maximal cytotoxic concentration (CC50) in assay [2] is > 50 µM (active).

Take `COc1ccc(C(=O)Nc2ccccc2)cc1NC(=O)c1ccc([N+](=O)[O-])cc1`: the EC50 was > 60 µM (not active) in assay [1] and 1.33 µM (active) in assay [3]. Also, in assay [2], the CC50 was > 50 µM (active).

As for `O=c1c(-c2cccc(Cl)c2)nc2cncnc2n1Cc1ccccc1`, the AC50 was 39.8 µM (inconclusive) at Cytochrome P450 2D6 and 0.0398 µM (inconclusive) on Cytochrome P450 2C19.

Regarding `CCCCN(CCCC)CCCOC(=O)c1ccc(N)cc1` [BUTACAINE], the AC50 at Cytochrome P450 1A2 was 10 µM (inconclusive).

On to `O=C(CN(CC1CCCO1)C(=O)CNS(=O)(=O)c1ccc(Cl)cc1)NCCc1ccccc1` (stereo not given), for which the AC50 was 39.8 µM (inconclusive) on Cytochrome P450 2D6 and 22.4 µM (inconclusive) at Cytochrome P450 2C9.

For `O=C(COc1cccc2ccccc12)N/N=C/c1ccc(Sc2nc3ccccc3s2)o1`, the CC50 in assay [2] was 10.8 µM (active).

In the case of `CC(=O)O[C@H]1CC[C@@]2(C)C(=CC[C@@H]3[C@H]4CC[C@@H]([C@H](C)C(=O)O)[C@]4(C)CC[C@H]32)C1`, the AC50 on Cytochrome P450 1A2 is 3.16 µM (inconclusive).

With `Cc1nc2cnc(N3CCN(C)CC3)nc2n(Cc2cccs2)c1=O`, the AC50 at Cytochrome P450 2D6 was 15.8 µM (inconclusive); at Cytochrome P450 3A4, 25.1 µM (inconclusive).

With `NC(=O)OC[C@H](O)COc1ccc(Cl)cc1`, the AC50 on Cytochrome P450 1A2 was 10 µM (inconclusive).

With `O=C(c1cnccn1)N1CCC2(CCCN(c3ccc(-c4ccccc4)cc3)C2)CC1`, the AC50 on Cytochrome P450 2C9 was 12.6 µM (inconclusive); at Cytochrome P450 1A2, 25.1 µM (inconclusive).
